Assay results from ChEMBL document CHEMBL1136285, “Discovery of a novel potent Na+/Ca2+ exchanger inhibitor: design, synthesis and structure-activity relationships of 3,4-dihydro-2(1H)-quinazolinone derivatives” (Bioorg Med Chem Lett, 2003).

System: not listed separately
Assay: pKa value was determined
Format: physicochemical

Compound | pKa
CCN(CC)C(=O)CN1C(=O)Nc2ccccc2C1c1ccccc1 (stereo not drawn) | -0.58
CCN(CC)CCN1C(=O)Nc2ccccc2C1c1ccccc1 (stereo not drawn) | 10.2

Organism: Cavia porcellus
Assay: Inhibitory activity (1 uM) against Na+/[Ca2+] exchanger after 30 min of K+ free incubation in isolated left atria from guinea pig
Format: functional

Compound | Inhibition
CCOc1ccc(Oc2ccc(OCc3cc(F)ccc3F)cc2)c(N)c1 | > 80%

Organism: Cavia porcellus
Assay: Inhibitory activity against Na+/[Ca2+] exchanger after 30 min of K+ free incubation in isolated left atria from guinea pig

IC30 | Compound
0.46 µM | CN(C)CCCN1C(=O)Nc2ccc(Cl)cc2C1c1ccccc1 (stereo not drawn)
> 10 µM | NCCN1C(=O)Nc2ccccc2C1c1ccccc1 (stereo not drawn)
0.093 µM | CCCN1CCC(N2C(=O)Nc3ccccc3C2c2ccccc2)CC1 (stereo not drawn)
> 10 µM | CCOCCN1C(=O)Nc2ccccc2C1c1ccccc1 (stereo not drawn)
0.58 µM | CCNCCN1C(=O)Nc2ccccc2C1c1ccccc1 (stereo not drawn)
> 10 µM | CN(C)CCCN1C(=O)Nc2ccccc2C1Cc1ccccc1 (stereo not drawn)
0.51 µM | CN(C)CCCN1C(=O)Nc2ccccc2C1c1ccccn1 (stereo not drawn)
0.087 µM | CN1CCC(N2C(=O)Nc3ccccc3C2c2ccccc2)CC1 (stereo not drawn)
0.04 µM | CCN(CC)CCCN1C(=O)Nc2ccccc2C1c1ccccc1 (stereo not drawn)
1.9 µM | CCN(CC)CCCCN1C(=O)Nc2ccccc2C1c1ccccc1 (stereo not drawn)
> 10 µM | CCN(CC)C(=O)CN1C(=O)Nc2ccccc2C1c1ccccc1 (stereo not drawn)
> 10 µM | CC(C)CCCN1C(=O)Nc2ccccc2C1c1ccccc1 (stereo not drawn)
0.069 µM | CCN(CC)CCN1C(=O)Nc2ccccc2C1c1ccccc1 (stereo not drawn)
0.72 µM | CN(C)CCCN1C(=O)Nc2ccccc2C1c1cccs1 (stereo not drawn)
0.35 µM | CN(C)CCCN1C(=O)Nc2ccccc2C1c1ccccc1 (stereo not drawn)

Second part, the compound before the results:

Compound | IC30
O=C1Nc2ccccc2C(c2ccccc2)N1C1CCN(CCc2ccccc2)CC1 (stereo not drawn) | 3.6 µM
CC1c2ccccc2NC(=O)N1CCCN(C)C (stereo not drawn) | 5.3 µM
CN(C)CCCN1C(=O)Nc2ccccc2C1C1CCCCC1 (stereo not drawn) | 0.57 µM
O=C1Nc2ccccc2C(c2ccccc2)N1C1CCNCC1 (stereo not drawn) | 1.1 µM
CN(C)CCCN1C(S)=Nc2ccccc2C1c1ccccc1 (stereo not drawn) | 3.8 µM
CN(C)CCCN1C(=O)N(C)c2ccc(Cl)cc2C1c1ccccc1 (stereo not drawn) | > 10 µM
O=C1Nc2ccccc2C(c2ccccc2)N1C1CCN(CC2CCCCC2)CC1 (stereo not drawn) | 4 µM
CN(C)CCCN1C(=O)Nc2ccc(Cl)cc2C1c1ccco1 (stereo not drawn) | 0.69 µM
CCN1CCC(N2C(=O)Nc3ccccc3C2c2ccccc2)CC1 (stereo not drawn) | 0.053 µM
O=C1Nc2ccccc2C(c2ccccc2)N1C1CCN(Cc2ccccc2)CC1 (stereo not drawn) | 0.017 µM
